Test results: the NIST ThermoML archive (doi:10.1021/je034102r)

Assay: molar heat capacity at saturation pressure
Details: Small (less than 1 g) adiabatic calorimetry

CCCCn1cc[n+](C)c1.F[P-](F)(F)(F)(F)F [1-butyl-3-methylimidazolium hexafluorophosphate]
Details	molar heat capacity [J/K/mol]
5 K, Crystal	1.007
5 K, Glass	1.946
5.09 K, Glass	2.049
5.13 K, Crystal	1.065
5.36 K, Glass	2.336
5.41 K, Crystal	1.231
5.59 K, Glass	2.627
5.67 K, Crystal	1.405
5.85 K, Glass	2.997
5.97 K, Crystal	1.625
6.14 K, Glass	3.411
6.29 K, Crystal	1.927
6.47 K, Glass	3.839
6.6 K, Crystal	2.264
6.82 K, Glass	4.454
6.91 K, Crystal	2.566
7.15 K, Glass	4.943
7.23 K, Crystal	2.994
7.49 K, Glass	5.596
7.58 K, Crystal	3.435
7.84 K, Glass	6.275
7.92 K, Crystal	3.848
8.21 K, Glass	6.958
8.28 K, Crystal	4.395
8.61 K, Glass	7.772
8.66 K, Crystal	4.99
9 K, Glass	8.63
9.07 K, Crystal	5.739
9.41 K, Glass	9.587
9.49 K, Crystal	6.479
9.82 K, Glass	10.46
9.92 K, Crystal	7.352
10 K, Crystal	7.487
10 K, Glass	10.93
10.27 K, Glass	11.64
10.35 K, Crystal	8.195
10.75 K, Crystal	9.005
10.76 K, Glass	12.74
11.18 K, Crystal	10.04
11.23 K, Glass	14.01
11.74 K, Crystal	11.29
11.74 K, Glass	15.2
12.29 K, Glass	16.65
12.32 K, Crystal	12.57
12.81 K, Glass	18.03
12.92 K, Crystal	14.08
13.36 K, Glass	19.55
13.56 K, Crystal	15.72
13.99 K, Glass	21.2
14.2 K, Crystal	17.26
14.65 K, Glass	23.01
14.85 K, Crystal	19.06
15 K, Crystal	19.41
15 K, Glass	23.95
15.35 K, Glass	24.94
15.51 K, Crystal	20.76
16.07 K, Glass	26.85
16.24 K, Crystal	22.77
16.81 K, Glass	28.88
17 K, Crystal	24.84
17.63 K, Glass	31.14
17.78 K, Crystal	26.97
18.5 K, Glass	33.53
18.66 K, Crystal	29.5
19.36 K, Glass	35.93
19.54 K, Crystal	32.1
20 K, Crystal	33.34
20 K, Glass	37.71
20.17 K, Glass	38.13
20.45 K, Crystal	34.73
21.05 K, Glass	40.62
21.38 K, Crystal	37.23
22.07 K, Glass	43.51
22.32 K, Crystal	39.8
23.08 K, Glass	46.05
23.31 K, Crystal	42.57
24.15 K, Glass	49.07
24.37 K, Crystal	45.56
25 K, Crystal	47.15
25 K, Glass	51.23
25.25 K, Glass	51.82
25.51 K, Crystal	48.5
26.28 K, Glass	54.6
26.64 K, Crystal	51.23
27.38 K, Glass	57.25
27.83 K, Crystal	54.25
28.63 K, Glass	60.1
29.06 K, Crystal	57.36
29.99 K, Glass	63.37
30 K, Crystal	59.6
30 K, Glass	63.41
30.21 K, Crystal	60.16
31.43 K, Glass	66.52
31.51 K, Crystal	63.15
32.95 K, Glass	70.07
32.97 K, Crystal	66.37
34.47 K, Crystal	69.5
34.52 K, Glass	73.45
35 K, Crystal	70.66
35 K, Glass	74.31
36.07 K, Crystal	72.74
36.17 K, Glass	76.76
37.71 K, Crystal	76.12
37.88 K, Glass	79.79
39.38 K, Crystal	79.31
39.66 K, Glass	83.48
40 K, Crystal	80.48
40 K, Glass	83.89
41.07 K, Crystal	82.46
41.55 K, Glass	86.89
42.76 K, Crystal	85.47
43.54 K, Glass	90.3
44.47 K, Crystal	88.38
45 K, Crystal	89.21
45 K, Glass	92.46
45.53 K, Glass	93.29
46.22 K, Crystal	91.38
47.48 K, Glass	96.53
48 K, Crystal	93.87
49.44 K, Glass	99.69
49.81 K, Crystal	96.36
50 K, Crystal	96.95
50 K, Glass	100.6
51.38 K, Glass	102.7
51.62 K, Crystal	99.36
53.34 K, Glass	105.7
53.48 K, Crystal	101.9
55.43 K, Glass	108.8
55.49 K, Crystal	104.4
57.6 K, Glass	111.9
57.62 K, Crystal	106.9
59.71 K, Crystal	109.9
59.75 K, Glass	114.9
60 K, Crystal	110.2
60 K, Glass	115.6
61.89 K, Crystal	112.3
61.89 K, Glass	117.8
64.01 K, Glass	121.6
64.13 K, Crystal	115.1
66.11 K, Glass	123.9
66.36 K, Crystal	118.1
68.19 K, Glass	127.2
68.68 K, Crystal	120.7
70 K, Crystal	122
70 K, Glass	129.2
70.41 K, Glass	130
71.13 K, Crystal	123.1
72.69 K, Glass	132.8
73.64 K, Crystal	125.8
75.03 K, Glass	135.6
76.05 K, Crystal	128.6
77.42 K, Glass	138.4
78.39 K, Crystal	130.8
79.89 K, Glass	142.1
80 K, Crystal	132.7
80 K, Glass	141.8
80.75 K, Crystal	133.5
82.45 K, Glass	144.5
83.19 K, Crystal	136
84.93 K, Glass	147.7
85.74 K, Crystal	138.7
87.39 K, Glass	150.3
88.31 K, Crystal	141.4
89.83 K, Glass	153.7
90 K, Crystal	142.9
90 K, Glass	154.1
90.82 K, Crystal	143.8
92.25 K, Glass	157.1
93.26 K, Crystal	146.3
95.42 K, Glass	160.5
95.87 K, Crystal	149.1
97.92 K, Glass	163.5
98.65 K, Crystal	151.7
100 K, Crystal	153.2
100 K, Glass	166
100.28 K, Crystal	153.6
100.38 K, Glass	166.5
100.78 K, Glass	167.5
101.35 K, Crystal	154.9
102.77 K, Crystal	156.1
103.17 K, Glass	170
105.21 K, Crystal	158.5
105.51 K, Glass	172.9
107.6 K, Crystal	160.8
107.81 K, Glass	175.4
110 K, Crystal	163.1
110 K, Glass	177.9
110.06 K, Glass	177.9
110.13 K, Crystal	163.1
112.28 K, Glass	180.3
112.77 K, Crystal	165.8
114.54 K, Glass	183.2
115.37 K, Crystal	168.1
116.84 K, Glass	185.7
117.92 K, Crystal	170.7
119.11 K, Glass	188.2
120 K, Crystal	172.9
120 K, Glass	189.1
120.6 K, Crystal	173.4
121.35 K, Glass	190.5
123.41 K, Crystal	176.3
123.71 K, Glass	193.2
126.17 K, Crystal	178.9
126.2 K, Glass	195.8
128.66 K, Glass	198.4
128.89 K, Crystal	181.8
130 K, Crystal	182.8
130 K, Glass	200
131.16 K, Glass	201.3
131.56 K, Crystal	184.6
133.7 K, Glass	204.1
134.28 K, Crystal	187.2
136.2 K, Glass	207.1
137.03 K, Crystal	190.2
138.67 K, Glass	209.8
139.75 K, Crystal	193
140 K, Crystal	193.1
140 K, Glass	211
141.19 K, Glass	212.4
142.43 K, Crystal	195.6
143.75 K, Glass	215.3
145.07 K, Crystal	198.5
146.28 K, Glass	217.9
147.68 K, Crystal	201.1
148.93 K, Glass	220.9
150 K, Crystal	203.7
150 K, Glass	222.2
150.26 K, Crystal	204.1
151.7 K, Glass	224.2
152.8 K, Crystal	206.7
154.44 K, Glass	226.9
155.32 K, Crystal	209.6
157.14 K, Glass	230.1
157.81 K, Crystal	212.4
159.81 K, Glass	233.2
160 K, Crystal	214.6
160 K, Glass	233.6
160.34 K, Crystal	214.8
162.53 K, Glass	236.6
162.92 K, Crystal	217.8
165.29 K, Glass	239.8
165.46 K, Crystal	220.6
168.02 K, Glass	243.1
168.07 K, Crystal	223.6
170 K, Crystal	225.7
170 K, Glass	245.7
170.71 K, Crystal	226.4
170.72 K, Glass	246.4
173.34 K, Crystal	229.6
173.39 K, Glass	249.7
175.93 K, Crystal	232.7
176.04 K, Glass	253
177.26 K, Glass	254.8
178.5 K, Crystal	235.4
180 K, Crystal	237.2
180 K, Glass	258.1
180.15 K, Glass	258.7
181.04 K, Crystal	238.3
183.09 K, Glass	263.9
183.56 K, Crystal	241.2
186.06 K, Crystal	244.3
186.06 K, Glass	273
188.53 K, Crystal	247.2
188.97 K, Glass	285
190 K, Crystal	248.8
190 K, Glass	270.5
190.6 K, Glass	271.2
190.6 K, Liquid	352.9
190.98 K, Crystal	249.9
191.7 K, Glass	322.8
193.42 K, Crystal	252.8
194.24 K, Glass	351
194.81 K, Crystal	254.5
196.8 K, Liquid	355.5
197.49 K, Crystal	257.7
199.36 K, Liquid	356.4
200 K, Crystal	260.7
200 K, Liquid	356.9
200.29 K, Crystal	260.8
201.91 K, Liquid	357.9
203.07 K, Crystal	264.4
204.58 K, Liquid	359.1
205.82 K, Crystal	267.4
207.37 K, Liquid	360.1
208.72 K, Crystal	270.5
210 K, Crystal	272.2
210 K, Liquid	361.4
210.22 K, Liquid	361.4
211.76 K, Crystal	274.3
213.13 K, Liquid	363.4
214.78 K, Crystal	277.7
217.77 K, Crystal	280.9
220 K, Crystal	283.4
220 K, Liquid	366.1
220.73 K, Crystal	284.4
223.67 K, Crystal	287.4
226.59 K, Crystal	290.7
229.55 K, Crystal	293.6
230 K, Crystal	294.2
230 K, Liquid	370.9
232.58 K, Crystal	297.2
235.59 K, Crystal	300.4
238.56 K, Crystal	303.6
238.61 K, Liquid	375.5
240 K, Crystal	305.2
240 K, Liquid	376
240.98 K, Liquid	376.4
241.58 K, Crystal	307.1
243.49 K, Liquid	377.7
244.65 K, Crystal	310.8
246 K, Liquid	379.1
247.69 K, Crystal	313.5
248.49 K, Liquid	379.9
250 K, Crystal	316.7
250 K, Liquid	381.1
250.71 K, Crystal	316.9
250.97 K, Liquid	381.9
253.43 K, Liquid	382.8
253.7 K, Crystal	320.9
256.03 K, Liquid	384.1
256.67 K, Crystal	323.9
258.86 K, Liquid	386
259.68 K, Crystal	327.4
260 K, Crystal	328.2
260 K, Liquid	386.5
261.82 K, Liquid	387.4
262.73 K, Crystal	331.8
264.77 K, Liquid	388.5
265.76 K, Crystal	335.3
267.7 K, Liquid	390.6
268.75 K, Crystal	342
270 K, Crystal	339.6
270 K, Liquid	392.1
270.75 K, Liquid	392.9
273.92 K, Liquid	394.4
277.07 K, Liquid	396.2
279.27 K, Liquid	397.3
280 K, Crystal	351
280 K, Liquid	397.8
280.22 K, Liquid	397.8
282.28 K, Liquid	399.3
283.51 K, Crystal	355.1
283.51 K, Liquid	399.8
285.27 K, Liquid	401.1
288.25 K, Liquid	402.9
290 K, Liquid	403.8
290.53 K, Liquid	404.3
291.29 K, Liquid	404.5
293.21 K, Liquid	406.2
294.38 K, Liquid	406.7
296.25 K, Liquid	407.3
297.45 K, Liquid	409
298.15 K, Liquid	408.7
299.28 K, Liquid	409.7
300 K, Liquid	409.8
300.51 K, Liquid	409.8
302.31 K, Liquid	411.6
303.56 K, Liquid	411.8
305.32 K, Liquid	412.9
306.66 K, Liquid	414
308.31 K, Liquid	414.6
309.81 K, Liquid	416
310 K, Liquid	415.9
311.31 K, Liquid	416.3
320 K, Liquid	422.3
340 K, Liquid	434.7
360 K, Liquid	446.2
380 K, Liquid	457
400 K, Liquid	466.9
420 K, Liquid	476
440 K, Liquid	484.3
460 K, Liquid	491.8
480 K, Liquid	498.5
500 K, Liquid	504.4
520 K, Liquid	509.5
540 K, Liquid	513.8
550 K, Liquid	515.6
